According to patent US7652057B2, “Pyrazolones as 11b-HSD1 inhibitors for diabetes” (Hoffman-La Roche Inc., priority 2005, dated 2010):

Target: T1, human 11beta-HSD1 (Homo sapiens, UniProt P28845)
T1 construct: made in house; host or cells: HEK293 cells (ATCC CRL-1573), transient transfection with a pcDNA3 construct; microsomal fraction
Test: Microsome assay (cortisone to cortisol conversion, ELISA)
Type: biochemical
Settings: microsomes from HEK293 cells transiently expressing human 11beta-HSD1; Cortisone 50-200 nM, NADPH 1 mM, 60 min at 37° C.; read-out: h 11-beta-HSD 1 IC50
Description: The cDNA encoding the human 11beta-HSD1 protein was cloned into the expression vector pcDNA3 ([…]). This construct (for details see Alex Odermatt et al.; J Biol Chem., 1999, Vol. 274, Issue 40, 28762-28770) was used to transiently express the protein in HEK293 cells (ATCC number: CRL-1573, described in Graham, F. L., Smiley, J., Russell, W. C., Nairn, R.; (1977)) using lipofectamine. 48 h after transfection cells were washed twice with ice-cold PBS (Phosphate buffered Saline). To 1 volume of cell suspension in PBS 2 volumes of ice-cold lysis buffer (50 mM Tris; pH7.5; 1 mM EDTA; 100 mM NaCl) were added. The cells were lysed by Potter-homogenization (20 strokes). The resulting homogenate was sonicated wit a tip sonicator (10% output; 2×30 sec.) and cleared by a low speed centrifugation (10 min×9000 g; 4° C.). The microsomal fraction was collected by a high speed centrifugation (60 min×110'000 g). […]
Microsomes isolated from HEK293 cells transiently expressing human 11beta-HSD1 (for details see above) were incubated in assay buffer (100 mM NaCl; 1 mM EDTA; 1 mM EGTA; 1 mM MgCl; 250 mM Sucrose; 20 mM Tris pH 7.4; Cortisone 50-200 nM and NADPH 1 mM) together with different concentrations of test substances. […] The amount of Cortisol produced in this assay was determined using a commercially available, ELISA-based Cortisol-detection kit (Distributed by Assay Design, Inc.). […]

T1 sequence (P28845 whole entry): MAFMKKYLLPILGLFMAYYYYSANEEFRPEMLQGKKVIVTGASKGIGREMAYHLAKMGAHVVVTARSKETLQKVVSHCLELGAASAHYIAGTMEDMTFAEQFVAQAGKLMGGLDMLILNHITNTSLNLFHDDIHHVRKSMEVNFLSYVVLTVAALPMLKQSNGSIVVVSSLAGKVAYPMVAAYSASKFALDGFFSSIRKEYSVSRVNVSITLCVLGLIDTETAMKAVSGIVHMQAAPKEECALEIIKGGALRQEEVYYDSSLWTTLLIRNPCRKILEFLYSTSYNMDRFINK

IC50	Structure (SMILES)
21 nM	Cn1c(C2CC2)c(C2CC2)c(=O)n1-c1ccccc1 [Example 1, 4,5-Dicyclopropyl-1-methyl-2-phenyl-1,2-dihydro-pyrazol-3-one]
133 nM	Cc1c(C23CC4CC(CC(C4)C2)C3)c(=O)n2n1CCCCC2 [Example 51, 2-adamantan-1-yl-3-methyl-6,7,8,9-tetrahydro-5H-pyrazolo[1,2-a][1,2]diazepin-1-one]
